For one assay, the target named is MPS1 (Homo sapiens (Human), UniProt P33981). Put plainly: Biochemical assay for inhibitors of MPS1 kinase activity (33P-ATP trans-phosphorylation, Dowex). Particulars: 5 nM MPS1, 15 microM ATP, P38-β-tide 200 microM. The text has this: Cloning, Expression and Purification of Recombinant MPS1 Full Length Protein.
MPS1 full length (corresponding to residues 2-857 of the full length sequence, see Swiss-Prot accession number P33981) was PCR amplified from the full-length human MPS1 gene present in house as clone pGEX4t_MPS1.
Baculoviruses were generated by cotransfecting Sf9 insect cells with the expression vector and the viral DNA using the BaculoGold® transfection kit (Pharmingen). Viral supernatant was recovered after 5 days and subjected to 3 rounds of amplification to increase viral titer. Recombinant protein was produced by infecting High5 insect cells. After 72 hours of infection at 21° C., cells were recovered, pelletted and freezed at −80° C. For purification of recombinant protein, pellet was thawed, resuspended in lysis buffer (PBS, NaCl 150 mM, Glycerol 10%, CHAPS 0.1%, DTT 20 mM, protease and phosphatase inhibitors) and lysed by Gaulin. Lysate was cleared by centrifugation and loaded on a GST affinity column. After extensive wash, recombinant protein was cleaved by a specific protease and eluted by incubation.
To get a fully activated enzyme, the protein was then subjected to auto-phosphorylation in presence of ATP 1 mM at 25° C. for 2 hours in kinase buffer (Hepes pH7.5 50 mM, MgCl2 2.5 mM, MnCl2 1 mM, DTT 1 mM, phosphatase inhibitors); ATP was then removed whit a desalting column.
Biochemical Assay for Inhibitors of MPS1 Kinase Activity
(§1) The inhibitory activity of putative kinase inhibitors and the potency of selected compounds were determined using a trans-phosphorylation assay.
(§2) Specific peptide or protein substrates are trans-phosphorylated by their specific ser-thr or tyr kinase in the presence of ATP traced with ^33P-γ-ATP, and in the presence of their own optimal buffer and cofactors.
(§3) At the end of the phosphorylation reaction, more than 98% unlabeled ATP and radioactive ATP is captured by an excess of the ion exchange dowex resin; the resin then settles down to the bottom of the reaction plate by gravity.
Supernatant is subsequently withdrawn and transferred into a counting plate, then evaluated by P-counting.
The buffer for MPS1 assay was composed of HEPES 50 mM, at pH 7.5, with 2.5 mM MgCl2, 1 mM MnCl2, 1 mM DTT, 3 microM Na3VO4, 2 mM P-glycerophosphate and 0.2 mg/mL BSA.
The assay was run with a final concentration MPS1 of 5 nM, in the presence of 15 microM ATP and 1.5 nM ^33P-γ-ATP; the substrate was P38-β-tide, used at 200 microM.
(§4) The test mix consisted of:
(§5) 1) 3× Enzyme mix (done in Kinase Buffer 3×), 5 microL/well
(§6) 2) 3× substrate and ATP mix (done in ddH2O), together with ^33P-γ-ATP, 5 microL/well
(§7) 3) 3× test compounds (diluted into ddH2O—3% DMSO)—5 microL/well
a) for percent inhibition studies (HTS), individual dilution plates at 1 mM are diluted at a 3× concentration (30 microM) in ddH2O (3% DMSO=final concentration) using a Beckman NX automated pipetting platform. The same instrument is used for distributing the diluted mother plates into the test plates. b) for IC50 determination (KSS platform), 100 μl of each compound at 1 mM in 100% DMSO are transferred from the original plate into the first column of another 96 well plate (A1 to G1); well H1 is left empty for the internal standard inhibitor, usually staurosporine.
An automated station for serial dilutions (Biomek FX, Beckman) is used for producing 1:3 dilutions in 100% DMSO, from line A1 to A10, and for all the seven compounds in the column. Moreover, 4-5 copies of daughter plates are prepared by reformatting 5 microL of this first set of 100% DMSO dilution plates into 384 deep well-plates: one copy of the daughter plates with the serial dilutions of test compounds will be thaw the day of the experiments, reconstituted at a 3× concentration with water and used in the IC50 determination assays. In a standard experiment, the highest concentration (3×) of all compounds is 30 microM, while the lowest one is 1.5 nM. […]

A further assay deals with PIM-2 (Homo sapiens (Human), UniProt Q9P1W9). Put plainly: PIM-2 kinase inhibition assay: Dowex technique. It counts as biochemical. The settings on record: 1.5 nM enzyme, 4 microM ATP, Aktide 5 microM. On the procedure:
Method for PIM-2 Kinase Inhibition Assay: Dowex Technique
The buffer for PIM-2 assay was composed of HEPES 50 mM, at pH 7.5, with 1 mM MgCl2, 1 mM DTT, 3 microM Na3VO4, and 0.2 mg/mL BSA
Full-length human PIM-2 was expressed and purified as described in Fedorov O, et al., PNAS 2007 104, 51, 20523-28.
Enzyme concentration=1.5 nM
Aktide substrate (Chemical Abstract Service Registry Number 324029-01-8)=5 microM
See above: same procedure as described for PIM-1.

The next assay addresses PIM-1 (Homo sapiens (Human), UniProt P11309). Description: Biochemical assay for inhibitors of PIM-1 kinase activity (33P-ATP trans-phosphorylation, Dowex). The settings on record: 1 nM enzyme, 200 microM ATP, Aktide 25 microM. On the procedure:
Biochemical Assay for Inhibitors of PIM-1 Kinase Activity
as §1, §2, §3
Supernatant is subsequently withdrawn and transferred into a counting plate, then evaluated by (3-counting.
The buffer for PIM-1 assay was composed of HEPES 50 mM, at pH 7.5, with 10 mM MgCl2, 1 mM DTT, 3 microM NaVO3, and 0.2 mg/mL BSA
Full-length human PIM-1 was expressed and purified as described in Bullock A N, et al., J. Biol. Chem. 2005, 280, 41675-82.
1.7 microM PIM1 was incubated 1 hour RT at 28° C. in the presence of 125 microM ATP
ATP concentration: 200 microM
Enzyme concentration: 1 nM
Substrate concentration Aktide (Chemical Abstract Service Registry Number 324029-01-8): 25 microM
as §4, §5, §6, §7
For IC50 determination, test compounds are received as a 1 mM solution in 100% DMSO and distributed into 96-well plates: compounds are then plated into the first column of a new 96-well plate (A1 to G1), 100 microL/well.
An automated station (Biomek FX, Beckman) is used for serial dilutions, producing 1:3 dilutions in 100% DMSO, from line A1 to A10, for all the compounds in the column. […]
Data are analyzed by an internally customized version of the “Assay Explorer” SW package, which provides sigmoidal fitting of the ten-dilution curves for IC50 determination in secondary assay/hit confirmation routines.

Structures are written as SMILES. Where a name gives a salt, the structure may show the parent alone.

Sequence of MPS1 (P33981 2-857): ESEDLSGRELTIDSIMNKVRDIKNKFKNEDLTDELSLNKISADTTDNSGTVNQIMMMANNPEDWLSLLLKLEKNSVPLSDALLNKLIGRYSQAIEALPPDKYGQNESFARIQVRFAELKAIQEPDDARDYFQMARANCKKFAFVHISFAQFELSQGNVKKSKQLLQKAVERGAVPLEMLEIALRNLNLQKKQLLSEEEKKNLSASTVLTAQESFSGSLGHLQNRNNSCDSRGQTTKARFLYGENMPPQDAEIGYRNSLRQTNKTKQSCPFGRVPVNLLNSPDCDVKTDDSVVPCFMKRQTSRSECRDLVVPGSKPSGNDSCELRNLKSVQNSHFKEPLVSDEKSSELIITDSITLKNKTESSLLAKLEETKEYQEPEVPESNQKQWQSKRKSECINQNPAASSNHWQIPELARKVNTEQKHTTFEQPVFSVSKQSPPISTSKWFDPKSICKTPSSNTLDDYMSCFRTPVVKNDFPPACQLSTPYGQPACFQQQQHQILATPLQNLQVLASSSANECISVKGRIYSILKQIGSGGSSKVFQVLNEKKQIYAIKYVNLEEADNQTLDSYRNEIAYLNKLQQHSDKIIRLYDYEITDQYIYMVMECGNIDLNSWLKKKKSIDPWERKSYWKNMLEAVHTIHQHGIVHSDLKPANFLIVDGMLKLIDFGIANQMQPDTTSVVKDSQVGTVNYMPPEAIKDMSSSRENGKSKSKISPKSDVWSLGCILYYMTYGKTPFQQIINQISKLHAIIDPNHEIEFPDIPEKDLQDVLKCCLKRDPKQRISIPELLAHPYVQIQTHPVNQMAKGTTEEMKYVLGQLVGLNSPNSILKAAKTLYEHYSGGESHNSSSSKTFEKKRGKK
Sequence of PIM-1 (P11309 whole entry): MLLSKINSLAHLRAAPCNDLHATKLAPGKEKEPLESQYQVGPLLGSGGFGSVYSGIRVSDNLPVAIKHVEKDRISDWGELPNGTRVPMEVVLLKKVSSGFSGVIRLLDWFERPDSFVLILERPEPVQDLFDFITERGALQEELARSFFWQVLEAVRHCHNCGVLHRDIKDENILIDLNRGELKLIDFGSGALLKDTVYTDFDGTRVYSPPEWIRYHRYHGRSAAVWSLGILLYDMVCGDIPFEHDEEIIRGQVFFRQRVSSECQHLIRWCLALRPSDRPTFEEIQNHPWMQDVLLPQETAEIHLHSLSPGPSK
Sequence of PIM-2 (Q9P1W9 whole entry): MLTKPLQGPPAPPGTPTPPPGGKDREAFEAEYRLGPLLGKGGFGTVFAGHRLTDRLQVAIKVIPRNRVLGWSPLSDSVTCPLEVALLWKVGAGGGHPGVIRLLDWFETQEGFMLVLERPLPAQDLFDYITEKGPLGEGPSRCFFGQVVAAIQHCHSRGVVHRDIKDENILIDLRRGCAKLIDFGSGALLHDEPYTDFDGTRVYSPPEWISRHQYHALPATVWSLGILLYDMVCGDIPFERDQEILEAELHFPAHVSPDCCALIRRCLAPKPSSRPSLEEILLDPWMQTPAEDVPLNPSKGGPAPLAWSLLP

As for `COc1cc(N2CCN(C)CC2)ccc1Nc1ncc2c(n1)-c1c(c(C(N)=O)nn1C)CCC2` [Compound 3, 9-{[2-methoxy-4-(4-methylpiperazin-1-yl)phenyl]amino}-1-methyl-1,4,5,6-tetrahydropyrazolo[4′,3′:6,7]cyclohepta[1,2-d]pyrimidine-3-carboxamide], the figures for the IC50 on MPS1, against PIM-2 and against PIM-1 were 194 nM, 5910 nM and 1320 nM, respectively.
As for `COc1cc(C(=O)NC2CCN(C)CC2)ccc1Nc1ncc2c(n1)-c1c(c(C(=O)N[C@H](CN)c3ccccc3)nn1C)CCC2` [Compound 5, N-[(1S)-2-amino-1-phenylethyl]-9-({2-methoxy-4-[(1-methylpiperidin-4-yl)carbamoyl]phenyl}amino)-1-methyl-1,4,5,6-tetrahydropyrazolo[4′,3′:6,7]cyclohepta[1,2-d]pyrimidine-3-carboxamide dihydrochloride], the IC50 against MPS1 came out at 469 nM; against PIM-2, 3760 nM; against PIM-1, 497 nM.
In the case of `CN1CCN(c2ccc(Nc3ncc4c(n3)-c3c(c(C(N)=O)nn3C)CCC4)cc2)CC1` [Compound 67, 1-methyl-9-{[4-(4-methylpiperazin-1-yl)phenyl]amino}-1,4,5,6-tetrahydropyrazolo[4′,3′:6,7]cyclohepta[1,2-d]pyrimidine-3-carboxamide trifluoroacetate], the figures for the IC50 against MPS1, at PIM-2 and against PIM-1 were 1200 nM, 3600 nM and 2450 nM, respectively.

For the origin of these results see patent publication US8916577B2, “Tricyclic derivatives, process for their preparation and their use as kinase inhibitors” (Nerviano Medical Sciences S.R.L., priority 2011, dated 2014).
